From patent publication US6495591B1, “Fungal efflux pump inhibitors” (Essential Therapeutics, Inc., priority 1997, dated 2002)
In brackets after ≈: the same amount, converted by molar mass. Where two headings read alike, the source gives them in different places.

Columns and labels:
[1] = system: S. cerevisiae YEM-39 (CgCDR introduced); experiment: microbe, parasite or virus in culture; type: cell-based; details: Saccharomyces cerevisiae, read-out: MIC Mb alone
[2] = system: C. krusei YEM-52 (ATCC 90878), wild type; experiment: Minimal concentration to reduce fluconazole MIC sixteen-fold (Table 7); type: cell-based; details: YEM-52, wild type
[3] = system: C. albicans YEM-29 (BEN, FLU1 deleted); experiment: microbe, parasite or virus in culture; type: cell-based
[4] = system: C. glabrata YEM-16 (low level CgBEN and CgCDR expression); experiment: microbe, parasite or virus in culture; type: cell-based
[5] = system: S. cerevisiae YEM-37 (CDR2 introduced); experiment: microbe, parasite or virus in culture; type: cell-based; details: Saccharomyces cerevisiae, read-out: MIC Mb alone
[6] = system: C. glabrata YEM-19 (CgCDR overexpressor); type: cell-based
[7] = system: S. cerevisiae YEM-3 (no efflux pump introduced); experiment: microbe, parasite or virus in culture; type: cell-based; details: Saccharomyces cerevisiae, read-out: MIC Mb alone
[8] = system: C. albicans YEM-27 (CDR1, CDR2, BEN, FLU1 deleted); experiment: microbe, parasite or virus in culture; type: cell-based
BenR pump = BenR pump (Candida albicans, UniProt P28873); experiment: Follow-up evaluation of screening hit, efflux pump inhibition; details: follow-up evaluation of screen hit
Description: An exemplary screen uses C. albicans (e.g., ATCC10231) grown in YPD medium (medium described in “Guide to Yeast Genetics and Molecular Biology”, in Methods in Enzymolopy, vol. 194, pp.13, 1991,; Academic Press; Ed. C. Guthrie and G. Fink) at 30° C. […] Test and control cultures are inoculated with log-phase cells to provide approximately 10^3 CFU/ml. Cultures are incubated at 30° C. for 20-22 hrs. Cell concentration is determined by taking the OD600.

[9] = system: S. cerevisiae YEM-1 (CDR1 introduced); experiment: microbe, parasite or virus in culture; type: cell-based; details: Saccharomyces cerevisiae, read-out: MIC Mb alone
[10] = system: mammalian P-glycoprotein multi-drug resistant pump; type: cell-based, mouse
Description: The inhibitory effect of milbemycin β1 against the mammalian P-glycoprotein multi-drug resistant pump was determined following the procedure described by Tsuruo et al (Cancer Res., 1981. 41:1967-1972) with slight modification. The cytotoxicity of antitumor agent, adriamycin, against adriamycin sensitive P388 cell line (mouse leukemia) and its adriamycin resistant subline line (P388/ADM) was measured in the presence of various concentrations of milbemycin β1. […] The assay is performed in serum-free media containing 20 μM of 2-mercaptoethanol. Chemosensitivity to adriamycin was determined […] based on the reduction of MTT (3-[4,5-dimethylthiazol-2-yl]-2,5-diphenyltetrazolium bromide) into blue formazan.

[11] = system: C. albicans YEM-10 (low level CDR1 expressor); experiment: microbe, parasite or virus in culture; type: cell-based
[12] = system: C. albicans YEM-15 (CDR1 & CDR2 overexpressor); type: cell-based
C. lipolytica = experiment: microbe, parasite or virus in culture; type: cell-based; details: strain 828B; MIC (80%) in YPD
[13] = system: C. albicans YEM-15 (CDR1 & CDR2 overexpressor); experiment: microbe, parasite or virus in culture; type: cell-based; set-up: MIC Reduction Factor, fluconazole / MIC Reduction Factor, itraconazole / MIC Reduction Factor, ketoconazole / MIC Reduction Factor, terbinafine: unit not given beside the values; details: for MIC: Candida albicans
C. krusei YEM-71 = experiment: Broth dilution checkerboard, azoles and terbinafine with milbemycin α9 (Table 8); type: cell-based; set-up: MIC Reduction Factor, fluconazole / MIC Reduction Factor, itraconazole / MIC Reduction Factor, ketoconazole / MIC Reduction Factor, terbinafine: unit not given beside the values; details: for MIC: Pichia kudriavzevii
[14] = system: C. albicans clinical isolates (n = 33); experiment: microbe, parasite or virus in culture; type: cell-based
[15] = system: S. cerevisiae YEM-37 overexpressing CDR2 (C. albicans); experiment: microbe, parasite or virus in culture; type: cell-based; set-up: MIC Reduction Factor, fluconazole: unit not given beside the values; details: for MIC: Saccharomyces cerevisiae
[16] = biological target: pFLU (MF) efflux pump in S. cerevisiae YEM-38 (Candida albicans, UniProt G1UB37); experiment: cell-based; type: cell-based, C. albicans
[17] = system: S. cerevisiae YEM-1 overexpressing CDR1 (C. albicans); experiment: microbe, parasite or virus in culture; type: cell-based; set-up: MIC Reduction Factor, fluconazole: unit not given beside the values; details: for MIC: Saccharomyces cerevisiae
[18] = Candida albicans, read-out: MIC Mb alone
[19] = read-out: Terbinafine MIC in the presence of FEPImax
[20] = YEM-15, milbemycin α9 at FEPImax
[21] = YEM-71, milbemycin α9 at FEPImax
[22] = YEM-37 (CDR2), milbemycin α9 at FEPImax
[23] = YEM-37, milbemycin α9 at FEPImax
[24] = YEM-1 (CDR1), milbemycin α9 at FEPImax
[25] = YEM-1, milbemycin α9 at FEPImax

Sequence of pFLU (MF) efflux pump in S. cerevisiae YEM-38 (G1UB37 whole entry): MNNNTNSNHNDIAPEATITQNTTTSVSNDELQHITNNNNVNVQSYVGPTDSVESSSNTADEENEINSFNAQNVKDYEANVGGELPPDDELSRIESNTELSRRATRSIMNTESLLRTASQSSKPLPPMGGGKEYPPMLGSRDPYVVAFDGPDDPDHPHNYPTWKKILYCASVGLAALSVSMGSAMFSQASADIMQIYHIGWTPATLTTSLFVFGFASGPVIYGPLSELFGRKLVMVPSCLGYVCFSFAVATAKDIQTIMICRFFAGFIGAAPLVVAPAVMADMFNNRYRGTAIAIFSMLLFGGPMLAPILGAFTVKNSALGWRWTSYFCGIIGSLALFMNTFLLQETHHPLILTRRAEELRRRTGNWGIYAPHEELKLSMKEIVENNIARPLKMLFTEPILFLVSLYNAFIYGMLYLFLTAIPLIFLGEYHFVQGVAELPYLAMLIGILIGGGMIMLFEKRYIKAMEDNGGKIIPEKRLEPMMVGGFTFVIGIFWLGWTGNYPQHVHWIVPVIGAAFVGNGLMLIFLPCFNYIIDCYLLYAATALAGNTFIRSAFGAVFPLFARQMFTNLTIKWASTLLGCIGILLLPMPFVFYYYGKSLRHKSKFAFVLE
Sequence of BenR pump (P28873 whole entry): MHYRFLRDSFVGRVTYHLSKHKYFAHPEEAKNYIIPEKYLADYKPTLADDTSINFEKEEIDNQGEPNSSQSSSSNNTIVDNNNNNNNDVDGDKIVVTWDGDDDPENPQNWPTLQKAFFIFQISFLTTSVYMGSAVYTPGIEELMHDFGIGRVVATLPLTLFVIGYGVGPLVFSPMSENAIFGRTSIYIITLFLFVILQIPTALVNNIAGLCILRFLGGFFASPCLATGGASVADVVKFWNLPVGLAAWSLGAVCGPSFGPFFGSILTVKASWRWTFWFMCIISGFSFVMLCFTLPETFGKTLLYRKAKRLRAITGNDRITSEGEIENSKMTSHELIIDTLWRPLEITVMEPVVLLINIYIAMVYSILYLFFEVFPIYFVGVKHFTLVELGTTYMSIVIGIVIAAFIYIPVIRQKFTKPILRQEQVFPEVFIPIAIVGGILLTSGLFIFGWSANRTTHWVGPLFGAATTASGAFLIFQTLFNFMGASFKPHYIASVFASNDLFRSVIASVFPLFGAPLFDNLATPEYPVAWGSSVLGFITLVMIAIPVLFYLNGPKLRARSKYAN

## CO[C@H]1C[C@@]2(O)/C(CO)=C/C=C/[C@H](C)C/C(C)=C/C[C@@H]3C[C@@H](C[C@]4(CC[C@H](C)[C@@H](C)O4)O3)OC(=O)[C@@H]2C=C1C [Compound 6, Milbemycin β1]
[1]
  MIC: 8 µg/mL (≈ 14.7 µM)
[2]
  Minimal concentration required to reduce the MIC of fluconazole by sixteen-fold: 1.25 µg/mL
[3]; [18]
  MIC: 16 µg/mL (≈ 29.4 µM)
[3]; YEM-29, BEN, FLU1 deleted, milbemycin β1 2.5 μg/ml
  MIC of fluconazole, Flu + Mb (2.5 μg/ml): 0.03 µg/mL
[4]; Nakaseomyces glabratus, read-out: MIC of milbemycin β1 (MB) alone
  MIC: > 64 µg/mL
[4]; YEM-16
  Fluconazole MIC with 2.5 μg/ml milbemycin β1: 1 µg/mL
  Fluconazole MIC with 5 μg/ml milbemycin β1: 2 µg/mL
  Fluconazole MIC with 10 μg/ml milbemycin β1: 2 µg/mL
  Fluconazole MIC with […] milbemycin β1: 2 µg/mL
[5]
  MIC: 8 µg/mL (≈ 14.7 µM)
[6]
  Minimal concentration required to reduce the MIC of fluconazole by sixteen-fold: 2.5 µg/mL
[7]
  MIC: 8 µg/mL (≈ 14.7 µM)
[8]; [18]
  MIC: 16 µg/mL (≈ 29.4 µM)
[8]; YEM-27, all four pumps deleted, milbemycin β1 2.5 μg/ml
  MIC of fluconazole, Flu + Mb (2.5 μg/ml): 0.03 µg/mL
[8]; YEM-27, strain which lacked all identified efflux pumps
  Effect on fluconazole susceptibility: No effect
BenR pump
  Inhibition of the BenR pump: did not appreciably inhibit the BenR pump
[9]
  MIC: 8 µg/mL (≈ 14.7 µM)
[10]; compared with verapamil
  Potency as inhibitor of the mammalian p-glycoprotein multi-drug resistant pump: potency similar to that of verapamil
[10]; inhibitor 0.06 μg/ml
  Ratio [P388/A]/[P388]: 220
[10]; inhibitor 0.25 μg/ml
  Ratio [P388/A]/[P388]: 75
[10]; inhibitor 0.5 μg/ml
  Ratio [P388/A]/[P388]: 32
[10]; inhibitor 1 μg/ml
  Ratio [P388/A]/[P388]: 23
[10]; inhibitor 2 μg/ml
  Ratio [P388/A]/[P388]: 4
[10]; inhibitor 3.125 μg/ml
  Ratio [P388/A]/[P388]: 5
[11]; [18]
  MIC: 16 µg/mL (≈ 29.4 µM)
[11]; YEM-10, milbemycin β1 2.5 μg/ml
  MIC of fluconazole, Flu + Mb (2.5 μg/ml): 0.125 µg/mL
[12]
  Minimal concentration required to reduce the MIC of fluconazole by sixteen-fold: <0.07 µg/mL

## C/C1=C\C[C@@H]2C[C@@H](C[C@]3(CC[C@H](C)[C@@H](C)O3)O2)OC(=O)[C@@H]2C=C(COC(=O)c3ccc[nH]3)[C@@H](O)[C@H]3OC/C(=C\C=C\[C@H](C)C1)[C@]32O [Compound 11, Milbemycin α9]
C. lipolytica
  Fluconazole MIC, + milbemycin α9: 8 µg/mL
[13]; read-out: Milbemycin α9 MIC
  MIC: > 64 µg/mL
[13]; [19]
  MIC: 0.125 µg/mL
[13]; YEM-15
  FEPImax (minimal milbemycin α9 conc. for maximum MIC reduction), fluconazole: 16 µg/mL
  FEPImax (minimal milbemycin α9 conc. for maximum MIC reduction), itraconazole: 1 µg/mL
  FEPImax (minimal milbemycin α9 conc. for maximum MIC reduction), ketoconazole: 4 µg/mL
  FEPImax (minimal milbemycin α9 conc. for maximum MIC reduction), terbinafine: 4 µg/mL
[13]; [20]
  Fluconazole MIC in the presence of FEPImax: 2 µg/mL
  Itraconazole MIC in the presence of FEPImax: 0.06 µg/mL
  Ketoconazole MIC in the presence of FEPImax: 0.015 µg/mL
  MIC Reduction Factor, fluconazole: 64
  MIC Reduction Factor, itraconazole: 8
  MIC Reduction Factor, ketoconazole: 64
  MIC Reduction Factor, terbinafine: 1024
C. krusei YEM-71; YEM71, read-out: Milbemycin α9 MIC
  MIC: > 64 µg/mL
C. krusei YEM-71; YEM71, read-out: Terbinafine MIC in the presence of FEPImax
  MIC: 2 µg/mL
C. krusei YEM-71; YEM-71
  FEPImax (minimal milbemycin α9 conc. for maximum MIC reduction), fluconazole: 1 µg/mL
  FEPImax (minimal milbemycin α9 conc. for maximum MIC reduction), itraconazole: 0.25 µg/mL
  FEPImax (minimal milbemycin α9 conc. for maximum MIC reduction), ketoconazole: 2 µg/mL
  FEPImax (minimal milbemycin α9 conc. for maximum MIC reduction), terbinafine: 0.008 µg/mL
C. krusei YEM-71; [21]
  Fluconazole MIC in the presence of FEPImax: 8 µg/mL
  Itraconazole MIC in the presence of FEPImax: 0.008 µg/mL
  Ketoconazole MIC in the presence of FEPImax: 0.015 µg/mL
  MIC Reduction Factor, fluconazole: 16
  MIC Reduction Factor, itraconazole: 64
  MIC Reduction Factor, ketoconazole: 128
  MIC Reduction Factor, terbinafine: 64
[14]
  Fluconazole MIC50, + milbemycin α9: <0.25 µg/mL
  Fluconazole MIC90, + milbemycin α9: <0.25 µg/mL
  Fluconazole MIC Range, + milbemycin α9: <0.25 to 1 µg/mL
[14]; C. albicans (n=33)
  Reduction of fluconazole MIC90 by milbemycin α9: > 512 fold
[15]; read-out: Milbemycin α9 MIC
  MIC: > 64 µg/mL
[15]; [19]
  MIC: 0.5 µg/mL
[15]; YEM-37 (CDR2)
  FEPImax (minimal milbemycin α9 conc. for maximum MIC reduction), fluconazole: 1 µg/mL
  FEPImax (minimal milbemycin α9 conc. for maximum MIC reduction), terbinafine: 4 µg/mL
[15]; [22]
  Pump inhibition (%), fluconazole: 100%
  Pump inhibition (%), terbinafine: 100%
[15]; [23]
  Fluconazole MIC in the presence of FEPImax: 0.5 µg/mL
  MIC Reduction Factor, fluconazole: 8
[16]
  IC50: > 100 µM
[17]; read-out: Milbemycin α9 MIC
  MIC: > 64 µg/mL
[17]; [19]
  MIC: 0.5 µg/mL
[17]; YEM-1 (CDR1)
  FEPImax (minimal milbemycin α9 conc. for maximum MIC reduction), fluconazole: 2 µg/mL
  FEPImax (minimal milbemycin α9 conc. for maximum MIC reduction), terbinafine: 0.5 µg/mL
[17]; [24]
  Pump inhibition (%), fluconazole: 100%
  Pump inhibition (%), terbinafine: 100%
[17]; [25]
  Fluconazole MIC in the presence of FEPImax: 0.5 µg/mL
  MIC Reduction Factor, fluconazole: 256
